Holding throughout (format): physicochemical
Data set [1] can be described thus: Dynamic vapour sorption (DVS) isothermal adsorption. The note with it: relative humidity 10%-80%. The method, then:
Dynamic vapour sorption (DVS) data is collected using TA Instruments Q5000 TGA, the instrument control software is Thermal Advantage and the analytical software is Universal Analysis. Usually, 1-10 mg of the specimen is placed in a platinum pan, weight changes of the specimen are recorded by TA software within the process of the relative humidity change from 10% to 80% to 10%. Depending on specific situations, different sorption and desorption procedures may be used. An isothermal adsorption curve can be generated by the procession of software.

Data set [2] is described as follows: Solubility in pure water (water added progressively until the sample completely dissolved). The note with it: 25° C. (room temperature). The method, then: Take 5 mg of the crystalline form of Afatinib dimaleate in the prior art prepared in preparation example 1 and the crystalline Form N of Afatinib monomaleate prepared in example 1 as the sample respectively, pure water was added into each sample progressively at 25° C. until the sample completely dissolved, then calculate the solubility of the sample according to the weight of the sample and water.

A short description of data set [3]: Hygroscopicity of prior-art forms (researches by the present inventors).

For the molecule `CN(C)C/C=C/C(=O)Nc1cc2c(Nc3ccc(F)c(Cl)c3)ncnc2cc1O[C@H]1CCOC1` [Afatinib dimaleate], the “weight change of the salt within the relative humidity range of 10%-80%” value in data set [1] (listed as Preparation Example 1) is 2.6%. Also, the solubility in data set [2] (listed as crystalline form of Afatinib dimaleate in the prior art) was 7.5 mg/mL.

Take `CN(C)C/C=C/C(=O)Nc1cc2c(Nc3ccc(F)c(Cl)c3)ncnc2cc1O[C@H]1CCOC1` [Form B of Afatinib dimaleate, Afatinib dimaleate]: in data set [3], the hygroscopicity entry is reported as “serious hygroscopicity issues”.

For `CN(C)C/C=C/C(=O)Nc1cc2c(Nc3ccc(F)c(Cl)c3)ncnc2cc1O[C@H]1CCOC1` [Afatinib monomaleate], the “weight change of the salt within the relative humidity range of 10%-80%” value in data set [1] (listed as Example 1) was determined as 2.1%. The solubility in data set [2] (listed as crystalline Form N of Afatinib monomaleate) was found to be 126.9 mg/mL.

As usually defined, the solubility is the dissolved amount per volume that the medium holds. Lower therefore signals little dissolved substance.

For the origin of these results see patent US9708301B2, “Crystalline forms of afatinib monomaleate, preparation methods and pharmaceutical compositions thereof” (priority 2015, dated 2017).
